Experimental data taken from US12459932B2, “KIF18A inhibitors” (AMGEN INC., priority 2018, dated 2025).
pIC50: −log10 of the molar value.

Each molecule was assayed against T1, Recombinant human KIF18A (1-467 His-tagged) (Homo sapiens, UniProt Q8NI77) (assay: KIF18A Enzyme Assay: microtubule-stimulated ATPase activity (ADP-Glo)). Details: 30 nM KIF18A, 30 μg/mL pig microtubules, ATP 75 μM (Km), ADP-Glo luminescence.
T1 construct: Recombinant human KIF18A (1-467 His-tagged) protein; His
Type: biochemical
Summary of the method: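 Measures microtubule-stimulated ATPase activity as ADP formed, detected by luminescence. Compounds were tested as 2-fold serial dilutions over 22 points. IC50 values came from four-parameter logistic fits.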

T1 sequence (Q8NI77 1-467): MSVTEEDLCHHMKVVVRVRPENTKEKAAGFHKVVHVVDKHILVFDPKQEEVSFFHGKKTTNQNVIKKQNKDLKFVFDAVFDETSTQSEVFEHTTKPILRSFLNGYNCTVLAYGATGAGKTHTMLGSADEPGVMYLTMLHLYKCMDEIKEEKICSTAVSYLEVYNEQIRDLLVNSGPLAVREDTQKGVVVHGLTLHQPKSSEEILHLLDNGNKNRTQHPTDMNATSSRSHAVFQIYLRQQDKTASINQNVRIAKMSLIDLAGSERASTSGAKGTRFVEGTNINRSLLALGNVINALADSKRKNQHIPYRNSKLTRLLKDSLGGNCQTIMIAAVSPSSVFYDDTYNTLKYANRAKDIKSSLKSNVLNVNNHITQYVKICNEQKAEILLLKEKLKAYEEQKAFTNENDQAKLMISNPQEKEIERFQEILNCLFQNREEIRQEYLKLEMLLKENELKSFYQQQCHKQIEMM
T1 sequence (P02550 whole entry partner): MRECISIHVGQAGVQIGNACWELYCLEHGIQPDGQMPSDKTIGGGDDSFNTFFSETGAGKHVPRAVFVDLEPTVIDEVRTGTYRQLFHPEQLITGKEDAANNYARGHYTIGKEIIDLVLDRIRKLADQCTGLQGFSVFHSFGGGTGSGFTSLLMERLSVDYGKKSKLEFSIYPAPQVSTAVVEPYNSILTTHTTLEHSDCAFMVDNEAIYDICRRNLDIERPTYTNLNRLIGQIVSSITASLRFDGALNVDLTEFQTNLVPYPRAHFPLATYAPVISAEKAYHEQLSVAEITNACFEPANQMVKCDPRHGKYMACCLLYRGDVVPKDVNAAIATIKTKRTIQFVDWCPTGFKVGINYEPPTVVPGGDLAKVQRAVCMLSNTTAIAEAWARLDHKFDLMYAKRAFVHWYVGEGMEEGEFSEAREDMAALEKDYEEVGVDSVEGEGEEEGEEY
T1 sequence (P02554 whole entry partner): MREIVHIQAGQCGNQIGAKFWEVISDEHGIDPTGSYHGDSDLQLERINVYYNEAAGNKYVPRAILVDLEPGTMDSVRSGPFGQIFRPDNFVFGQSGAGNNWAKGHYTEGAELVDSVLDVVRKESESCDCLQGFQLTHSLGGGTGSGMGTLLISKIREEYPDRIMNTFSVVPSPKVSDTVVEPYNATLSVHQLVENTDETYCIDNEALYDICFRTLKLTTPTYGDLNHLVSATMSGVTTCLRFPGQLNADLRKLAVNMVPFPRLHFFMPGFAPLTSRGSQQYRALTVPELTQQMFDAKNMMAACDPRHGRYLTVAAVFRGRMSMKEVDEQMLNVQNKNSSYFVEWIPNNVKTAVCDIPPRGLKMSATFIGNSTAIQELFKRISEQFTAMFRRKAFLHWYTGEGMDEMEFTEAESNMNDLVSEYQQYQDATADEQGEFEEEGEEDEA

| SMILES | pIC50 |
| --- | --- |
| C[C@@H]1CN(c2cccc(NC(=O)c3ccc(NS(=O)(=O)N(C)C)cc3N3CCC4(CC3)CC4)n2)CCO1 [Example 7-5, (R)-4-((N,N-Dimethylsulfamoyl)amino)-N-(6-(2-methylmorpholino)pyridin-2-yl)-2-(6-azaspiro[2.5]octan-6-yl)benzamide] | 7.26 |
| C[C@@H]1CN(c2cccc(NC(=O)c3ccc(S(=O)(=O)N4CC(C)(C)C4)cc3N3CCC4(CC3)CC4)n2)CCO1 [Example 1-11, (R)-4-((3,3-Dimethylazetidin-1-yl)sulfonyl)-N-(6-(2-methylmorpholino)pyridin-2-yl)-2-(6-azaspiro[2.5]octan-6-yl)benzamide] | 6.25 |
| C[C@H](CO)S(=O)(=O)Nc1ccc(C(=O)Nc2cccc(N3CC(F)C3)n2)c(N2CCC3(CC2)CC3)c1 (single isomer, unassigned) [Example 9-1] | 7.48 |
| Cc1cc(NC(=O)c2ccc(CS(C)(=O)=O)cc2N2CCC3(CC2)CC3)nc(N2CCOCC2)c1 [Example 4-16, N-(4-Methyl-6-morpholinopyridin-2-yl)-4-((methylsulfonyl)methyl)-2-(6-azaspiro[2.5]octan-6-yl)benzamide] | 6.84 |
| C[C@@H]1CN(c2cccc(NC(=O)c3ccc(NS(=O)(=O)CCF)cc3N3CCC4(CC3)CC4)n2)CCO1 [Example 7-35, (R)-4-((2-Fluoroethyl)sulfonamido)-N-(6-(2-methylmorpholino)pyridin-2-yl)-2-(6-azaspiro[2.5]octan-6-yl)benzamide] | 7.62 |
| C[C@H]1CN(c2cccc(NC(=O)c3ccc(NS(=O)(=O)[C@@H](C)CO)cc3N3CCC4(CC3)CC4)n2)CCO1 (single isomer, unassigned) [Example 9-18] | 7.44 |
| Cc1ccc(NC(=O)c2ccc(NS(=O)(=O)CCO)cc2N2CCC3(CC2)CC3)nc1N1CCOCC1 [Example 18, 4-((2-Hydroxyethyl)sulfonamido)-N-(5-methyl-6-morpholinopyridin-2-yl)-2-(6-azaspiro[2.5]octan-6-yl)benzamide] | 7.92 |
| O=C(Nc1cccc(OCCC(O)C(F)(F)F)n1)c1ccc(NS(=O)(=O)CCO)cc1N1CCC2(CC1)CC2 (stereo not shown) [Example 16-6, 4-((2-Hydroxyethyl)sulfonamido)-2-(6-azaspiro[2.5]octan-6-yl)-N-(6-(4,4,4-trifluoro-3-hydroxybutoxy)pyridin-2-yl)benzamide] | 7.09 |
| CC(C)(C)NS(=O)(=O)c1ccc(C(=O)Nc2cccc(N3CCC[C@H](O)C3)n2)c(N2CCC3(CC2)CC3)c1 [Example 3-3, (S)-4-(N-(tert-Butyl)sulfamoyl)-N-(6-(3-hydroxypiperidin-1-yl)pyridin-2-yl)-2-(6-azaspiro[2.5]octan-6-yl)benzamide] | 7.02 |
| Cc1cc(NC(=O)c2ccc(NS(=O)(=O)C3(CO)CC3)cc2N2CCC3(CC2)CC3)nc(N2CCC(F)(F)CC2)c1 [Example 10, N-(6-(4,4-Difluoropiperidin-1-yl)-4-methylpyridin-2-yl)-4-((1-(hydroxymethyl)cyclopropane)-1-sulfonamido)-2-(6-azaspiro[2.5]octan-6-yl)benzamide] | 6.91 |
| CC1(S(=O)(=O)Nc2ccc(C(=O)Nc3cccc(OCC4CC4)n3)c(N3CCC4(CC3)CC4)c2)CC1 [Example 14, N-(6-(Cyclopropylmethoxy)pyridin-2-yl)-4-((1-methylcyclopropane)-1-sulfonamido)-2-(6-azaspiro[2.5]octan-6-yl)benzamide] | 7.72 |
| C[C@@H]1CN(c2cccc(NC(=O)c3ccc(N4CCCS4(=O)=O)cc3N3CCC4(CC3)CC4)n2)CCO1 [Example 7-3, (R)-4-(1,1-Dioxidoisothiazolidin-2-yl)-N-(6-(2-methylmorpholino)pyridin-2-yl)-2-(6-azaspiro[2.5]octan-6-yl)benzamide] | 7.12 |
| Cc1cc(NC(=O)c2ccc(NS(=O)(=O)C(C)(C)C)cc2N2CCC3(CC2)CC3)nc(N2CC(F)(F)C2)c1 [Example 7-29, N-(6-(3,3-Difluoroazetidin-1-yl)-4-methylpyridin-2-yl)-4-((1,1-dimethylethyl)sulfonamido)-2-(6-azaspiro[2.5]octan-6-yl)benzamide] | 6.87 |
